The source of these data is patent US10004701B2, “Methods and compositions for treating infection” (UNIVERSITY OF ROCHESTER, priority 2012, dated 2018).

Counter-ions that a name gives are not always drawn. Like-named read-outs stand apart in the source and are kept apart here.

What all share (experiment): AK assay 384-well format, Prestwick library screening
The test system of one assay is E. faecium. Format: cell-based, Enterococcus faecium. The settings on record: for fold induction at 50 µM: Enterococcus faecium, 3 h.
For assay [1], the system named is S. aureus strain USA300-0114. It counts as cell-based, Staphylococcus aureus. The settings on record: for fold induction at 50 µM: Staphylococcus aureus, USA300, 3 h.
In another assay the test system is K. pneumoniae. Format: cell-based, Klebsiella pneumoniae. The settings on record: for fold induction at 50 µM: Klebsiella pneumoniae, 3 h.
Assay [2] concerns A. baumannii strain 98-37-09. Format: cell-based, Acinetobacter baumannii. The settings on record: for fold induction at 50 µM: Acinetobacter baumannii, 983709, 3 h.
For the next assay, the system named is P. aeruginosa. Format: cell-based, Pseudomonas aeruginosa. The following applies: for fold induction at 50 µM: Pseudomonas aeruginosa, 3 h.
In the next assay the test system is E. cloacae. Format: cell-based, Enterobacter cloacae. The settings on record: for fold induction at 50 µM: Enterobacter cloacae, 3 h.
The subject of the next assay is E. coli. Format: cell-based, Escherichia coli. The settings on record: for fold induction at 50 µM: Escherichia coli, 3 h.
Setting [3] is: 50 μM final drug concentration, planktonic, cutoff for positive-scoring molecules 3-fold increase, read-out: AK-based Prestwick Library Screening Results, E. faecium (fold increase in extracellular AK activity).
Setting [4] is: 50 μM final drug concentration, planktonic, cutoff for positive-scoring molecules 3-fold increase, read-out: AK-based Prestwick Library Screening Results, S. aureus (fold increase in extracellular AK activity).
Setting [5] is: 50 μM final drug concentration, planktonic, cutoff for positive-scoring molecules 3-fold increase, read-out: AK-based Prestwick Library Screening Results, K. pneumoniae (fold increase in extracellular AK activity).
[6] abbreviates: 50 μM final drug concentration, planktonic, cutoff for positive-scoring molecules 3-fold increase, read-out: AK-based Prestwick Library Screening Results, A. baumannii (fold increase in extracellular AK activity).
Where [7] appears, read: 50 μM final drug concentration, planktonic, cutoff for positive-scoring molecules 3-fold increase, read-out: AK-based Prestwick Library Screening Results, P. aeruginosa (fold increase in extracellular AK activity).
The mark [8] stands for this setting: 50 μM final drug concentration, planktonic, cutoff for positive-scoring molecules 3-fold increase, read-out: AK-based Prestwick Library Screening Results, E. cloacae (fold increase in extracellular AK activity).
The mark [9] stands for this setting: 50 μM final drug concentration, planktonic, cutoff for positive-scoring molecules 3-fold increase, read-out: AK-based Prestwick Library Screening Results, E. coli (fold increase in extracellular AK activity).

In the case of `CN(C)CC/C=C1\c2ccccc2CSc2ccccc21` [Dosulepin hydrochloride], the fold induction at 50 µM in the assay with E. faecium (planktonic E. faecium, 50 μM final drug concentration, cutoff for positive-scoring molecules 3-fold increase, read-out: AK-based Prestwick Library Screening Results, E. faecium (increase in extracellular AK activity)) was 0.9; in assay [1] (planktonic S. aureus, 50 μM final drug concentration, cutoff for positive-scoring molecules 3-fold increase, read-out: AK-based Prestwick Library Screening Results, S. aureus (increase in extracellular AK activity)), 0.5; in the assay on K. pneumoniae (planktonic K. pneumoniae, 50 μM final drug concentration, cutoff for positive-scoring molecules 3-fold increase, read-out: AK-based Prestwick Library Screening Results, K. pneumoniae (increase in extracellular AK activity)), 0.5; in assay [2] (planktonic A. baumannii, 50 μM final drug concentration, cutoff for positive-scoring molecules 3-fold increase, read-out: AK-based Prestwick Library Screening Results, A. baumannii (increase in extracellular AK activity)), 0.5; in the assay with P. aeruginosa (planktonic P. aeruginosa, 50 μM final drug concentration, cutoff for positive-scoring molecules 3-fold increase, read-out: AK-based Prestwick Library Screening Results, P. aeruginosa (increase in extracellular AK activity)), 0.5; in the assay with E. cloacae (planktonic E. cloacae, 50 μM final drug concentration, cutoff for positive-scoring molecules 3-fold increase, read-out: AK-based Prestwick Library Screening Results, E. cloacae (increase in extracellular AK activity)), 0.5. Further, the fold induction at 50 µM in the assay with E. coli (planktonic E. coli, 50 μM final drug concentration, cutoff for positive-scoring molecules 3-fold increase, read-out: AK-based Prestwick Library Screening Results, E. coli (increase in extracellular AK activity)) came out at 0.6.
Take `CCS(=O)(=O)CCn1c([N+](=O)[O-])cnc1C` [Tinidazole]: the fold induction at 50 µM is 0.9 in the assay on E. faecium (setting [3]); 1.2 in assay [1] (setting [4]); 0.8 with K. pneumoniae (setting [5]); 1 in assay [2] (setting [6]); 1.1 in the assay on P. aeruginosa (setting [7]); 1.5 with E. cloacae (setting [8]). The fold induction at 50 µM in the assay on E. coli (setting [9]) came to 1.2.
As for `N=C(N)N1CCc2ccccc2C1` [Debrisoquin sulfate], the fold induction at 50 µM in the assay with E. faecium (50 μM final drug concentration, planktonic, cutoff for positive 3-fold increase, read-out: AK-based Prestwick Library Screening Results, E. faecium (fold increase in extracellular AK activity)) is 1; in assay [1] (50 μM final drug concentration, planktonic, cutoff for positive 3-fold increase, read-out: AK-based Prestwick Library Screening Results, S. aureus (fold increase in extracellular AK activity)), 0.9; in the assay with K. pneumoniae (50 μM final drug concentration, planktonic, cutoff for positive 3-fold increase, read-out: AK-based Prestwick Library Screening Results, K. pneumoniae (fold increase in extracellular AK activity)) it was 0.8; in assay [2] (50 μM final drug concentration, planktonic, cutoff for positive 3-fold increase, read-out: AK-based Prestwick Library Screening Results, A. baumannii (fold increase in extracellular AK activity)) it was 0.9; in the assay on P. aeruginosa (50 μM final drug concentration, planktonic, cutoff for positive 3-fold increase, read-out: AK-based Prestwick Library Screening Results, P. aeruginosa (fold increase in extracellular AK activity)), 1; with E. cloacae (50 μM final drug concentration, planktonic, cutoff for positive 3-fold increase, read-out: AK-based Prestwick Library Screening Results, E. cloacae (fold increase in extracellular AK activity)) it was 1.7. Also, the fold induction at 50 µM in the assay on E. coli (50 μM final drug concentration, planktonic, cutoff for positive 3-fold increase, read-out: AK-based Prestwick Library Screening Results, E. coli (fold increase in extracellular AK activity)) stood at 1.2.
`Clc1cnccn1` [Compound 2-Chloropyrazine, 2-Chloropyrazine]: the fold induction at 50 µM in the assay on E. faecium (planktonic E. faecium, 50 μM final drug concentration, positive cutoff 3-fold increase, read-out: AK-based Prestwick library screening result, E. faecium (fold increase in extracellular AK activity)) stood at 1.1; in assay [1] (planktonic S. aureus, 50 μM final drug concentration, positive cutoff 3-fold increase, read-out: AK-based Prestwick library screening result, S. aureus (fold increase in extracellular AK activity)), 1.1; in the assay with K. pneumoniae (planktonic K. pneumoniae, 50 μM final drug concentration, positive cutoff 3-fold increase, read-out: AK-based Prestwick library screening result, K. pneumoniae (fold increase in extracellular AK activity)), 0.9; in assay [2] (planktonic A. baumannii, 50 μM final drug concentration, positive cutoff 3-fold increase, read-out: AK-based Prestwick library screening result, A. baumannii (fold increase in extracellular AK activity)), 1.2; in the assay on P. aeruginosa (planktonic P. aeruginosa, 50 μM final drug concentration, positive cutoff 3-fold increase, read-out: AK-based Prestwick library screening result, P. aeruginosa (fold increase in extracellular AK activity)), 1; in the assay with E. cloacae (planktonic E. cloacae, 50 μM final drug concentration, positive cutoff 3-fold increase, read-out: AK-based Prestwick library screening result, E. cloacae (fold increase in extracellular AK activity)) it was 1.4. In addition, in the assay on E. coli (planktonic E. coli, 50 μM final drug concentration, positive cutoff 3-fold increase, read-out: AK-based Prestwick library screening result, E. coli (fold increase in extracellular AK activity)), the fold induction at 50 µM is 1.
For Vitamin K2, the “AK-based Prestwick library screening result, E. faecium (fold increase in extracellular AK activity)” value in the assay on E. faecium (planktonic E. faecium, 50 μM final drug concentration, positive cutoff 3-fold increase) came out at 1.0. Besides, the “AK-based Prestwick library screening result, S. aureus (fold increase in extracellular AK activity)” value in assay [1] (planktonic S. aureus, 50 μM final drug concentration, positive cutoff 3-fold increase) was 1.8. Moreover, in the assay with K. pneumoniae (planktonic K. pneumoniae, 50 μM final drug concentration, positive cutoff 3-fold increase), the “AK-based Prestwick library screening result, K. pneumoniae (fold increase in extracellular AK activity)” value amounted to 0.8. Moreover, the “AK-based Prestwick library screening result, A. baumannii (fold increase in extracellular AK activity)” value in assay [2] (planktonic A. baumannii, 50 μM final drug concentration, positive cutoff 3-fold increase) was found to be 1.1. The “AK-based Prestwick library screening result, P. aeruginosa (fold increase in extracellular AK activity)” value in the assay on P. aeruginosa (planktonic P. aeruginosa, 50 μM final drug concentration, positive cutoff 3-fold increase) is given as 1.1. For the same compound, the “AK-based Prestwick library screening result, E. cloacae (fold increase in extracellular AK activity)” value with E. cloacae (planktonic E. cloacae, 50 μM final drug concentration, positive cutoff 3-fold increase) was 1.6. Moreover, the “AK-based Prestwick library screening result, E. coli (fold increase in extracellular AK activity)” value in the assay on E. coli (planktonic E. coli, 50 μM final drug concentration, positive cutoff 3-fold increase) is listed as 0.9.
With `C1CCc2nnnn2CC1` [Pentylenetetrazole], the fold induction at 50 µM in the assay with E. faecium (50 μM final drug concentration, 384-well format, cutoff for positive-scoring molecules 3-fold increase, read-out: AK-based Prestwick Library Screening Results, E. faecium (increase in extracellular AK activity)) was determined as 1; in assay [1] (50 μM final drug concentration, 384-well format, cutoff for positive-scoring molecules 3-fold increase, read-out: AK-based Prestwick Library Screening Results, S. aureus (increase in extracellular AK activity)) it was 0.7; in the assay with K. pneumoniae (50 μM final drug concentration, 384-well format, cutoff for positive-scoring molecules 3-fold increase, read-out: AK-based Prestwick Library Screening Results, K. pneumoniae (increase in extracellular AK activity)), 0.5; in assay [2] (50 μM final drug concentration, 384-well format, cutoff for positive-scoring molecules 3-fold increase, read-out: AK-based Prestwick Library Screening Results, A. baumannii (increase in extracellular AK activity)), 0.6; with P. aeruginosa (50 μM final drug concentration, 384-well format, cutoff for positive-scoring molecules 3-fold increase, read-out: AK-based Prestwick Library Screening Results, P. aeruginosa (increase in extracellular AK activity)), 0.7; in the assay with E. cloacae (50 μM final drug concentration, 384-well format, cutoff for positive-scoring molecules 3-fold increase, read-out: AK-based Prestwick Library Screening Results, E. cloacae (increase in extracellular AK activity)), 0.6. The fold induction at 50 µM in the assay with E. coli (50 μM final drug concentration, 384-well format, […], read-out: AK-based Prestwick Library Screening Results, E. coli (increase in extracellular AK activity)) is 0.6.
As to `Cn1c(-c2ccc3c(c2)OCO3)cc(=O)c2ccccc21` [Graveoline], the fold induction at 50 µM in the assay on E. faecium (setting [3]) was 0.8; in assay [1] (setting [4]), 0.7; in the assay with K. pneumoniae (setting [5]) it was 0.6; in assay [2] (setting [6]) it was 0.8; in the assay on P. aeruginosa (setting [7]), 0.8; in the assay with E. cloacae (setting [8]) it was 1.2. Moreover, in the assay with E. coli (setting [9]), the fold induction at 50 µM amounted to 0.8.
For the compound `C[C@]12CC[C@@H](O)C[C@@H]1CC[C@@H]1[C@@H]2CC[C@]2(C)C(=O)CC[C@@H]12` [Androsterone], the fold induction at 50 µM in the assay with E. faecium (read-out: AK-based Prestwick Library Screening Results, E. faecium (increase in extracellular AK activity)) was 1; in assay [1] (read-out: AK-based Prestwick Library Screening Results, S. aureus (increase in extracellular AK activity)), 0.5; in the assay with K. pneumoniae (read-out: AK-based Prestwick Library Screening Results, K. pneumoniae (increase in extracellular AK activity)), 0.5; in assay [2] (read-out: AK-based Prestwick Library Screening Results, A. baumannii (increase in extracellular AK activity)), 0.7; with P. aeruginosa (read-out: AK-based Prestwick Library Screening Results, P. aeruginosa (increase in extracellular AK activity)), 0.6; with E. cloacae (read-out: AK-based Prestwick Library Screening Results, E. cloacae (increase in extracellular AK activity)) it was 0.7. For the same compound, the fold induction at 50 µM in the assay with E. coli (read-out: AK-based Prestwick Library Screening Results, E. coli (increase in extracellular AK activity)) stood at 0.6.
